Experimental findings from ChEMBL document CHEMBL5335813, “Gausemycin Antibiotic Family Acts via Ca2+-Dependent Membrane Targeting” (2024) are described below.

Assay [1] deals with Staphylococcus aureus. Kind of assay: Antimicrobial activity against Staphylococcus aureus ATCC 29213 assessed as microbial growth inhibition measured after 18 hrs by CLSI based broth microdilution method. The class given is functional.
The subject of assay [2] is Staphylococcus aureus. Kind of assay: Antimicrobial activity against Staphylococcus aureus ATCC 29213 assessed as microbial growth inhibition at pH 5 to 6 by susceptibility testing method. Format: functional, organism-based.
Assay [3] relates to Staphylococcus aureus. Kind of assay: Antimicrobial activity against Staphylococcus aureus ATCC 29213 assessed as microbial growth inhibition in presence of Cu2+ by susceptibility testing method. Format: functional.
The test system of assay [4] is Staphylococcus aureus. Kind of assay: Antimicrobial activity against Staphylococcus aureus ATCC 29213 assessed as microbial growth inhibition in presence of Mn2+ by susceptibility testing method. Format: functional.
Assay [5] concerns Lipid bilayer. Kind of assay: Induction of pore formation in cationic DOPC/DOTAP lipid bilayer membrane model at 1 to 100 ug/ml. To be noted: dose 1-100 µg/ml.
Assay [6] has as its system Staphylococcus aureus. Briefly: Antimicrobial activity against Staphylococcus aureus ATCC 29213 assessed as microbial growth inhibition in presence of Ca2+ by susceptibility testing method. Format: functional.
Assay [7] concerns Bacillus cereus. Kind of assay: Antimicrobial activity against Bacillus cereus X1 assessed as microbial growth inhibition in presence of Ca2+ by susceptibility testing method. The class given is functional, organism-based.
Assay [8] concerns Escherichia coli. Briefly: Antimicrobial activity against Escherichia coli BL21 (DE3) assessed as microbial growth inhibition in presence of Ca2+ by susceptibility testing method. Format: functional, organism-based.
Assay [9] relates to Lipid bilayer. Kind of assay: Induction of pore formation in cationic DOPC/DOTAP lipid bilayer membrane model at 1 to 100 ug/ml in presence of CaCl2. To be noted: dose 1-100 µg/ml.
Assay [10] concerns Escherichia coli. Briefly: Antimicrobial activity against Escherichia coli expressing delta-tolC/KanR assessed as microbial growth inhibition in presence of Ca2+ by susceptibility testing method. Format: functional, organism-based.
The subject of assay [11] is Macrococcus caseolyticus. Briefly: Antimicrobial activity against Macrococcus caseolyticus assessed as microbial growth inhibition in presence of Ca2+ by susceptibility testing method. The class given is functional, organism-based. To be noted: Macrococcoides caseolyticum.
Assay [12] relates to Lipid bilayer. Kind of assay: Induction of pore formation in anionic TMoCL lipid bilayer membrane model assessed as pore-forming threshold concentration.
The subject of assay [13] is Lipid bilayer. Briefly: Induction of pore formation in anionic DOPC/DOPG lipid bilayer membrane model at 1 to 100 ug/ml. To be noted: dose 1-100 µg/ml.
For assay [14], the system named is Lipid bilayer. Kind of assay: Induction of pore formation in anionic TMoCL lipid bilayer membrane model at 1 to 100 ug/ml. To be noted: dose 1-100 µg/ml.
Assay [15] deals with Lipid bilayer. Briefly: Induction of pore formation in anionic TOCL lipid bilayer membrane model at 1 to 100 ug/ml in presence of CaCl2. To be noted: dose 1-100 µg/ml.
The subject of assay [16] is Lipid bilayer. Briefly: Induction of pore formation in anionic TMoCL lipid bilayer membrane model assessed as pore-forming threshold concentration in presence of CaCl2.
The subject of assay [17] is Lipid bilayer. Briefly: Induction of pore formation in anionic DPhPG lipid bilayer membrane model at 1 to 100 ug/ml in presence of CaCl2. To be noted: dose 1-100 µg/ml.
Assay [18] relates to Lipid bilayer. Briefly: Induction of pore formation in anionic DPhPG lipid bilayer membrane model at 1 to 100 ug/ml. To be noted: dose 1-100 µg/ml.
In assay [19] the test system is Staphylococcus aureus. Briefly: Antimicrobial activity against Staphylococcus aureus ATCC 29213 assessed as microbial growth inhibition in presence of Mg2+ by susceptibility testing method. The class given is functional.
Assay [20] has as its system Staphylococcus aureus. Briefly: Antimicrobial activity against Staphylococcus aureus ATCC 29213 assessed as microbial growth inhibition in presence of <=200 mM of (H2PO4)-/(HPO4)2- by susceptibility testing method. Format: functional, organism-based.
Assay [21] relates to Staphylococcus aureus. Briefly: Antimicrobial activity against Staphylococcus aureus ATCC 29213 assessed as microbial growth inhibition in presence of K+ by susceptibility testing method. The class given is functional.
Assay [22] has as its system Lipid bilayer. Briefly: Induction of pore formation in anionic TOCL lipid bilayer membrane model at 1 to 100 ug/ml. To be noted: dose 1-100 µg/ml.
The test system of assay [23] is Lipid bilayer. Kind of assay: Induction of pore formation in anionic DOPC/DOPG lipid bilayer membrane model at 1 to 100 ug/ml in presence of CaCl2. To be noted: dose 1-100 µg/ml.
Assay [24] concerns Staphylococcus aureus. Briefly: Antimicrobial activity against Staphylococcus aureus ATCC 29213 assessed as microbial growth inhibition in presence of Na+ by susceptibility testing method. The class given is functional.
In assay [25] the test system is Pseudomonas aeruginosa. Kind of assay: Antimicrobial activity against Pseudomonas aeruginosa assessed as microbial growth inhibition in presence of Ca2+ by susceptibility testing method. Format: functional, organism-based.
Assay [26] concerns Lipid bilayer. Kind of assay: Induction of pore formation in zwitter-ionic DOPC lipid bilayer membrane model at 1 to 100 ug/ml. To be noted: dose 1-100 µg/ml.
Assay [27] relates to Staphylococcus aureus. Kind of assay: Antimicrobial activity against Staphylococcus aureus ATCC 29213 assessed as microbial growth inhibition in presence of Fe3+ by susceptibility testing method. Format: functional.
Assay [28] concerns Micrococcus luteus. Briefly: Antimicrobial activity against Micrococcus luteus assessed as microbial growth inhibition in presence of Ca2+ by susceptibility testing method. Format: functional, organism-based.
The test system of assay [29] is Staphylococcus aureus. Kind of assay: Antimicrobial activity against Staphylococcus aureus ATCC 29213 assessed as microbial growth inhibition in presence of Zn2+ by susceptibility testing method. The class given is functional.
Assay [30] deals with Staphylococcus aureus. Briefly: Antimicrobial activity against Staphylococcus aureus ATCC 29213 assessed as microbial growth inhibition at pH 5 to 6 by microdilution method. The class given is functional, organism-based.

The structures appear in SMILES notation. Converted amounts (≈) assume the structure as drawn. The source made the active and inactive calls.

Regarding `CC(C)/C=C/C=C\C(=O)NCCC(=O)N[C@@H](CCCNC(=O)CCN)C(=O)NC(CC(O)c1ccccc1)C(=O)NC(C(=O)N[C@@H](Cc1ccc(O)cc1)C(=O)NC1C(=O)N[C@H](CC(C)C)C(=O)N[C@@H](CC(=O)O)C(=O)NCC(=O)N[C@@H](CO)C(=O)NCC(=O)N[C@@H](CC(=O)c2ccc(Cl)cc2N)C(=O)N[C@@H](C)C(=O)N2CCC[C@H]2C(=O)NC1C)C(O)CC(=O)O` (some centres not stated), in assay [1], the MIC (in general, the least concentration at which growth counts as inhibited) was 8 µg/mL (≈ 4.48 µM).
Consider `NCC[C@H](O)C(=O)N[C@@H]1C[C@H](N)[C@@H](O[C@H]2O[C@H](CN)[C@@H](O)[C@H](O)[C@H]2O)[C@H](O)[C@H]1O[C@H]1O[C@H](CO)[C@@H](O)[C@H](N)[C@H]1O`, for which the “growth inhibition (GI)” value in assay [2] is “Active”.
As for `CNCCC(=O)NCCC[C@H](NC(=O)CCNC(=O)/C=C\C=C\C(C)C)C(=O)NC(CC(O)c1ccccc1)C(=O)NC(C(=O)N[C@@H](Cc1ccc(O)cc1)C(=O)NC1C(=O)N[C@H](CC(C)C)C(=O)N[C@@H](CC(=O)O)C(=O)NCC(=O)N[C@@H](CO)C(=O)NCC(=O)N[C@@H](CC(=O)c2ccc(Cl)cc2N)C(=O)N[C@@H](C)C(=O)N2CCC[C@H]2C(=O)NC1C)C(O)CC(=O)O` (some centres not stated), the MIC in [1] came out at 16 µg/mL (≈ 8.89 µM).
In the case of `CC(C)/C=C/C=C\C(=O)NCCC(=O)N[C@@H](CCCN)C(=O)NC(CC(O)c1ccccc1)C(=O)NC(C(=O)N[C@@H](Cc1ccc(O)cc1)C(=O)NC1C(=O)N[C@H](CC(C)C)C(=O)N[C@@H](CC(=O)O)C(=O)NCC(=O)N[C@@H](CO)C(=O)NCC(=O)N[C@@H](CC(=O)c2ccc(Cl)cc2N)C(=O)N[C@@H](C)C(=O)N2CCC[C@H]2C(=O)NC1C)C(O)CC(=O)O` (some centres not stated), in [1], the MIC worked out at 8 µg/mL (≈ 4.66 µM).
In the case of `CNCCC(=O)NCCC[C@H](NC(=O)CCNC(=O)/C=C\C=C\C(C)C)C(=O)NC(CC(O)c1ccccc1)C(=O)NC(C(=O)N[C@@H](Cc1ccc(OC2OC[C@H](O)[C@H](O)[C@H]2O)cc1)C(=O)NC1C(=O)N[C@H](CC(C)C)C(=O)N[C@@H](CC(=O)O)C(=O)NCC(=O)N[C@@H](CO)C(=O)NCC(=O)N[C@@H](CC(=O)c2ccc(Cl)cc2N)C(=O)N[C@@H](C)C(=O)N2CCC[C@H]2C(=O)NC1C)C(O)CC(=O)O` (some centres not stated), the MIC in [1] was found to be 4 µg/mL (≈ 2.07 µM).
With `NC[C@H]1O[C@H](O[C@H]2[C@H](O)[C@@H](O[C@H]3O[C@H](CO)[C@@H](O)[C@H](N)[C@H]3O)[C@H](N)C[C@@H]2N)[C@H](N)C[C@@H]1O`, the “growth inhibition (GI)” value in assay [2] is “Active”.
For the compound `CC(C)/C=C/C=C\C(=O)NCCC(=O)N[C@@H](CCCNC(=O)CCN)C(=O)NC(CC(O)c1ccccc1)C(=O)NC(C(=O)N[C@@H](Cc1ccc(OC2OC[C@H](O)[C@H](O)[C@H]2O)cc1)C(=O)NC1C(=O)N[C@H](CC(C)C)C(=O)N[C@@H](CC(=O)O)C(=O)NCC(=O)N[C@@H](CO)C(=O)NCC(=O)N[C@@H](CC(=O)c2ccc(Cl)cc2N)C(=O)N[C@@H](C)C(=O)N2CCC[C@H]2C(=O)NC1C)C(O)CC(=O)O` (some centres not stated), the “growth inhibition (GI)” value in assay [3], in assay [4], in assay [6], in assay [2], in assay [19] and in assay [21] was “Active” each time. Further, the “growth inhibition (GI)” value in assay [24], in [27] and in assay [29] was “Active” each time. The outcome in assay [5], in [9], in assay [13], in assay [14], in assay [15] and in assay [17] was Active. The result in assay [18], in assay [22] and in assay [23] was Active. Further, the inhibition entry in [7], in assay [11] and in [28] was “Active” in each case. Moreover, the inhibition entry in assay [8], in [10] and in assay [25] was “inactive” throughout. Also, the minimum inhibitory concentration (MIC) in [1] was 2 µg/mL (≈ 1.04 µM). The figures for the Activity in assay [12] and in assay [16] were 10 µg/mL and 7 µg/mL, respectively. Besides, the result in [20] and in [26] was inactive.
Regarding `CCCCCCCCCC(=O)N[C@@H](Cc1c[nH]c2ccccc12)C(=O)N[C@H](CC(N)=O)C(=O)N[C@@H](CC(=O)O)C(=O)N[C@@H]1C(=O)NCC(=O)N[C@@H](CCCN)C(=O)N[C@@H](CC(=O)O)C(=O)N[C@H](C)C(=O)N[C@@H](CC(=O)O)C(=O)NCC(=O)N[C@H](CO)C(=O)N[C@@H]([C@H](C)CC(=O)O)C(=O)N[C@@H](CC(=O)c2ccccc2N)C(=O)O[C@@H]1C`, the “growth inhibition (GI)” value in assay [30] is “Active”.
With `CN[C@H](CC(C)C)C(=O)N[C@H]1C(=O)N[C@@H](CC(N)=O)C(=O)N[C@H]2C(=O)N[C@H]3C(=O)N[C@H](C(=O)N[C@H](C(=O)O)c4cc(O)cc(O)c4-c4cc3ccc4O)[C@H](O)c3ccc(c(Cl)c3)Oc3cc2cc(c3O[C@@H]2O[C@H](CO)[C@@H](O)[C@H](O)[C@H]2O[C@H]2C[C@](C)(N)[C@H](O)[C@H](C)O2)Oc2ccc(cc2Cl)[C@H]1O`, in assay [2], the “growth inhibition (GI)” value is “Active”.
